The target of test [1] is T1, purified recombinant human PI3K enzyme δ (Homo sapiens, UniProt O00329).
T1 construct: purchased Invitrogen, USA
Nature of the test: Inhibition of PI3-Kinase enzymatic activity (HTRF enzyme assay), δ. Format: biochemical. The settings on record: 1 μM compound; PI3K δ 50 ng/well; PIP2 10 μM; ATP 200 μM; read-out: Percentage inhibition of PI3K activity, δ. Here is the method: (§1) Inhibition of PI3-Kinase enzymatic activity was determined using a homogeneous time-resolved fluorescence (HTRF) kit from Eurofins. 1 μM of Compounds of present invention were premixed with DMSO. The experiment was initiated by mixing 1.0% DMSO as vehicle/compounds with purified recombinant human PI3K enzyme {δ (50 ng/well); γ (100 ng/well)} (Invitrogen, USA) and substrate (PIP2, 10 μM) in the wells and incubation for 15 min at room temperature. There after ATP was added (δ at 200 μM, and γ at 50 μM) in to the wells containing reaction mixture, followed by re-incubation for 30 minutes at room temperature. Reaction was terminated by addition of a stopping solution and was further incubated for 4 hours at room temperature before reading using Envision multimode reader (Perkin Elmer). Percentage inhibition of PI3K activity was calculated by determining ratio of specific europium 665 nm energy transfer signal to reference 615 nm signals.

Test [2] deals with T2, purified recombinant human PI3K enzyme γ (Homo sapiens, UniProt P48736).
T2 construct: purchased Invitrogen, USA
Nature of the test: Inhibition of PI3-Kinase enzymatic activity (HTRF enzyme assay), γ. To be noted: 1 μM compound; PI3K γ 100 ng/well; PIP2 10 μM; ATP 50 μM; read-out: Percentage inhibition of PI3K activity, γ. The format is biochemical. Here is the method: as §1
In general terms: In TR-FRET formats the signal depends on donor and acceptor labels being close together.

This note sets out measurements from patent publication US20190127381A1, “SUBSTITUTED FUSED PYRIMIDINONE COMPOUNDS” (TORRENT PHARMACEUTICALS LIMITED, priority 2016, published 2019).

By inhibition is commonly meant the relative decrease from the control value, in per cent.

T2 sequence (P48736 whole entry): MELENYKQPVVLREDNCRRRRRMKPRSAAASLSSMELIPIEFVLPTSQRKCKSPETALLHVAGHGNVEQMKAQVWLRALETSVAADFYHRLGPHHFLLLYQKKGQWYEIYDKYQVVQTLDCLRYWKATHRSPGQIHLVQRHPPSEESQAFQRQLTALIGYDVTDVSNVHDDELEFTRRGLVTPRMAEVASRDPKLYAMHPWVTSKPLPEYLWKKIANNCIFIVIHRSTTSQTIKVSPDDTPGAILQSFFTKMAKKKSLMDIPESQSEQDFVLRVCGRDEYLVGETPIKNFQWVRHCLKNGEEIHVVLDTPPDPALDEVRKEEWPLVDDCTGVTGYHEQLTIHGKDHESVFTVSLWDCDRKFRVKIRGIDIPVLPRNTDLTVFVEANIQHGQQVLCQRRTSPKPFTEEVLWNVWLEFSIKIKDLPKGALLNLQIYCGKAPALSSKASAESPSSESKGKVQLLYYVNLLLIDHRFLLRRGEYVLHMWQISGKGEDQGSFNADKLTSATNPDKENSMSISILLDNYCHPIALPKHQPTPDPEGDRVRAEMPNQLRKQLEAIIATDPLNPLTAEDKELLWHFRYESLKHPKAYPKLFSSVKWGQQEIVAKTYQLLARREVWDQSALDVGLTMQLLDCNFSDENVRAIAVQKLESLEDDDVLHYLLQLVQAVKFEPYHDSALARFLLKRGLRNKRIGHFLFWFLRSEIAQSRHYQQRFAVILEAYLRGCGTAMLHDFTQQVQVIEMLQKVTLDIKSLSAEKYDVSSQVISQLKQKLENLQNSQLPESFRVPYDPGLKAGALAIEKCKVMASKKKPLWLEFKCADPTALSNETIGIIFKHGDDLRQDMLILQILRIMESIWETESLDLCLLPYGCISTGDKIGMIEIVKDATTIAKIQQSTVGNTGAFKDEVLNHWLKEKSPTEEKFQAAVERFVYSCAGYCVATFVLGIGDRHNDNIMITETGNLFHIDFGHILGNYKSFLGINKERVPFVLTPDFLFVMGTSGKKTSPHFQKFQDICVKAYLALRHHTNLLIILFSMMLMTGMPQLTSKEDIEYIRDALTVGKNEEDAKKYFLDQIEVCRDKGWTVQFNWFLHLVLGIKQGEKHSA
T1 sequence (O00329 whole entry): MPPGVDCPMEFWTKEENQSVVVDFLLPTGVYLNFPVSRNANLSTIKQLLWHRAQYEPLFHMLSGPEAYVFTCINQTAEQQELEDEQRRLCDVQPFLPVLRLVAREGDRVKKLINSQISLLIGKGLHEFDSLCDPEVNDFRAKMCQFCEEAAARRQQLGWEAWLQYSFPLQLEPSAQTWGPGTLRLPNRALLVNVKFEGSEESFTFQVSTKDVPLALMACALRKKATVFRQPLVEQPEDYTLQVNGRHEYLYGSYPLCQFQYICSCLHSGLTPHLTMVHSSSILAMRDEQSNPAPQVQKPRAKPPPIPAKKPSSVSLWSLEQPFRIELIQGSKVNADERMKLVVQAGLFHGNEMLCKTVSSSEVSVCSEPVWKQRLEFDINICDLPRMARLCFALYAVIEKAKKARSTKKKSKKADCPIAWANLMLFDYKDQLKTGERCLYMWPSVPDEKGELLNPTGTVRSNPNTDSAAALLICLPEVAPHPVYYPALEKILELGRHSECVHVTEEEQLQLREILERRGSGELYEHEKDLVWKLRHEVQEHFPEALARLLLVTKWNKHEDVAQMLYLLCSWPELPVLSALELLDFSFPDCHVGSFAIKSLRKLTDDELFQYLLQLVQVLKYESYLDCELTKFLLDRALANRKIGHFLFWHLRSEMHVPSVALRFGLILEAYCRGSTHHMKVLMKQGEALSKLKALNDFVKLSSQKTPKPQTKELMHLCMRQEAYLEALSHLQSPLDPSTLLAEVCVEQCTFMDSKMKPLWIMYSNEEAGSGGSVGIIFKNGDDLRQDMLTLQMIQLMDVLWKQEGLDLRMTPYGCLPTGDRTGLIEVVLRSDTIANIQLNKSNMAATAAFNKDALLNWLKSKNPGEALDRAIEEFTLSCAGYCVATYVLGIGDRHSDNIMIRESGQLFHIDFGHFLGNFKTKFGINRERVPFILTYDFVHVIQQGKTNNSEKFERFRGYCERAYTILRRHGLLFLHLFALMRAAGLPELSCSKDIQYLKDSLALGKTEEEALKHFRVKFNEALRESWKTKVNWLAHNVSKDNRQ
T1 sequence (P27986 whole entry partner): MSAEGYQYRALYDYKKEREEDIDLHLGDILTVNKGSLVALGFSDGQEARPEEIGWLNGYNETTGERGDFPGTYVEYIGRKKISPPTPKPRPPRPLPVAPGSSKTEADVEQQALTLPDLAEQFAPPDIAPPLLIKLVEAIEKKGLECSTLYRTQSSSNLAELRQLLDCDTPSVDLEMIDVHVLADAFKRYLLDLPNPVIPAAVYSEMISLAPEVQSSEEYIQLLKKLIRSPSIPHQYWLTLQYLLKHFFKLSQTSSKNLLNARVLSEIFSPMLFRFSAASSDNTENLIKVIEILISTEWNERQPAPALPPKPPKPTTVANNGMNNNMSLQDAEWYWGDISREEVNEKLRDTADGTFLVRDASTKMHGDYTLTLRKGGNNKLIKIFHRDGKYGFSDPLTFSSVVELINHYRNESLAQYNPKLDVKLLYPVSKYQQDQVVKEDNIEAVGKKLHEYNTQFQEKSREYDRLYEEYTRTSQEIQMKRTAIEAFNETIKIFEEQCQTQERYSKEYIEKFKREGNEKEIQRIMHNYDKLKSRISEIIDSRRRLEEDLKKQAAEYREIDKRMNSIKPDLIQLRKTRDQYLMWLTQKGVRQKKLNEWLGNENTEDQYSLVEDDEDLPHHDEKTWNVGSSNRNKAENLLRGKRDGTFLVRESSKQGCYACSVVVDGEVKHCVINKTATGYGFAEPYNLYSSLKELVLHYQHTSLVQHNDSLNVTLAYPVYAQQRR

Take `Cc1ccc(C)n1-n1c(Cn2nc(-c3ccc(O)c4c3CC(C)(C)O4)c3c(N)ncnc32)nc2cccc(C#CC3CC3)c2c1=O` [compound 43, 2-{[4-amino-3-(7-hydroxy-2,2-dimethyl-2,3-dihydro-1-benzofuran-4-yl)-1H-pyrazolo[3,4-d]pyrimidin-1-yl]methyl}-5-(cyclopropylethynyl)-3-(2,5-dimethyl-1H-pyrrol-1-yl)quinazolin-4(3H)-one]: the inhibition at 1 µM in test [1] and in test [2] was 80 to 100% each time.
`CCn1cc(-c2cccc3nc(Cn4nc(-c5ccc(O)c6c5CC(C)(C)O6)c5c(N)ncnc54)n(-n4c(C)ccc4C)c(=O)c23)cn1` [compound 85, 2-{[4-amino-3-(7-hydroxy-2,2-dimethyl-2,3-dihydro-1-benzofuran-4-yl)-1H-pyrazolo[3,4-d]pyrimidin-1-yl]methyl}-3-(2,5-dimethyl-1H-pyrrol-1-yl)-5-(1-ethyl-1H-pyrazol-4-yl)quinazolin-4(3H)-one]: the inhibition at 1 µM in test [1] and in test [2] was 80 to 100% throughout.
With `CCn1cc(-c2cccc3nc(Cn4nc(-c5ccc(O)c6c5CCC6)c5c(N)ncnc54)n(-n4c(C)ccc4C)c(=O)c23)cn1` [compound 94, 2-{[4-amino-3-(7-hydroxy-2,3-dihydro-1H-inden-4-yl)-1H-pyrazolo[3,4-d]pyrimidin-1-yl]methyl}-3-(2,5-dimethyl-1H-pyrrol-1-yl)-5-(1-ethyl-1H-pyrazol-4-yl)quinazolin-4(3H)-one], the inhibition at 1 µM in test [1] and in test [2] was 80 to 100% each time.
For the compound `CCn1cc(-c2cccc3nc([C@H](C)n4nc(-c5ccc(O)c6c5CC(C)(C)O6)c5c(N)ncnc54)n(-n4cccc4)c(=O)c23)cn1` [compound 99, 2-{(1S)-1-[4-amino-3-(7-hydroxy-2,2-dimethyl-2,3-dihydro-1-benzofuran-4-yl)-1H-pyrazolo[3,4-d]pyrimidin-1-yl]ethyl}-5-(1-ethyl-1H-pyrazol-4-yl)-3-(1H-pyrrol-1-yl)quinazolin-4(3H)-one], the inhibition at 1 µM in test [1] was in the range of 80 to 100%; in test [2] it was 40 to 60%.
For `Cc1ccc(C)n1-n1c(Cn2nc(-c3ccc(O)c4c3CC(C)(C)O4)c3c(N)ncnc32)nc2cccc(C#CCN3CCN(C)CC3)c2c1=O` [compound 57, 2-{[4-amino-3-(7-hydroxy-2,2-dimethyl-2,3-dihydro-1-benzofuran-4-yl)-1H-pyrazolo[3,4-d]pyrimidin-1-yl]methyl}-3-(2,5-dimethyl-1H-pyrrol-1-yl)-5-[3-(4-methylpiperazin-1-yl)prop-1-yn-1-yl]quinazolin-4(3H)-one], the inhibition at 1 µM is 80 to 100% in test [1] and 60 to 80% in test [2].
The like results for `Cc1cccc(C2(n3c(Cn4nc(-c5ccc(O)c6c5CC(C)(C)O6)c5c(N)ncnc54)nc4cccc(C#CCO)c4c3=O)CC2)c1` [compound 31, 2-{[4-amino-3-(7-hydroxy-2,2-dimethyl-2,3-dihydro-1-benzofuran-4-yl)-1H-pyrazolo[3,4-d]pyrimidin-1-yl]methyl}-5-(3-hydroxyprop-1-yn-1-yl)-3-[1-(3-methylphenyl)cyclopropyl]quinazolin-4(3H)-one] were, in that order, 80 to 100% and 60 to 80%.
On to `CC1(C)Cc2c(-c3nn(Cc4nc5cccc(C#CC6CC6)c5c(=O)n4C4(c5ccsc5)CC4)c4ncnc(N)c34)ccc(O)c2O1` [compound 76, 2-{[4-amino-3-(7-hydroxy-2,2-dimethyl-2,3-dihydro-1-benzofuran-4-yl)-1H-pyrazolo[3,4-d]pyrimidin-1-yl]methyl}-5-(cyclopropylethynyl)-3-[1-(thiophen-3-yl)cyclopropyl]quinazolin-4(3H)-one], for which the inhibition at 1 µM in test [1] and in test [2] was 80 to 100% in each case.
As to `CC1(C)Cc2c(-c3nn(Cc4nc5cccc(C#CCN6CCNC(=O)C6)c5c(=O)n4-n4cccc4)c4ncnc(N)c34)ccc(O)c2O1` [compound 58, 2-{[4-amino-3-(7-hydroxy-2,2-dimethyl-2,3-dihydro-1-benzofuran-4-yl)-1H-pyrazolo[3,4-d]pyrimidin-1-yl]methyl}-5-[3-(3-oxopiperazin-1-yl)prop-1-yn-1-yl]-3-(1H-pyrrol-1-yl)quinazolin-4(3H)-one], the inhibition at 1 µM in test [1] and in test [2] was 80 to 100% in each case.
With `Cc1cc(C)n(-n2c(Cn3nc(-c4ccc(O)c5c4CC(C)(C)O5)c4c(N)ncnc43)nc3cccc(C)c3c2=O)n1` [compound 11, 2-{[4-amino-3-(7-hydroxy-2,2-dimethyl-2,3-dihydro-1-benzofuran-4-yl)-1H-pyrazolo[3,4-d]pyrimidin-1-yl]methyl}-3-(3,5-dimethyl-1H-pyrazol-1-yl)-5-methylquinazolin-4(3H)-one], the inhibition at 1 µM lay in the range of 80 to 100% in test [1] and 60 to 80% in test [2].
The like results for `Cc1ccc(C)n1-n1c(Cn2nc(-c3ccc(O)c4c3CCC4)c3c(N)ncnc32)nc2cccc(-c3cnn(C)c3)c2c1=O` [compound 93, 2-{[4-amino-3-(7-hydroxy-2,3-dihydro-1H-inden-4-yl)-1H-pyrazolo[3,4-d]pyrimidin-1-yl]methyl}-3-(2,5-dimethyl-1H-pyrrol-1-yl)-5-(1-methyl-1H-pyrazol-4-yl)quinazolin-4(3H)-one] were, in that order, 80 to 100% and 80 to 100%.
`CC1(C)Cc2c(-c3nn(Cc4nc5cccc(F)c5c(=O)n4C4(c5ccccc5)CC4)c4ncnc(N)c34)ccc(O)c2O1` [compound 26, 2-{[4-amino-3-(7-hydroxy-2,2-dimethyl-2,3-dihydro-1-benzofuran-4-yl)-1H-pyrazolo[3,4-d]pyrimidin-1-yl]methyl}-5-fluoro-3-(1-phenylcyclopropyl)quinazolin-4(3H)-one]: the inhibition at 1 µM in test [1] lay within 80 to 100%; in test [2], 40 to 60%.
For `CC1(C)Cc2c(-c3nn(Cc4nc5cccc(C#CC6CC6)c5c(=O)n4-n4cccc4)c4ncnc(N)c34)ccc(O)c2O1` [compound 48, 2-{[4-amino-3-(7-hydroxy-2,2-dimethyl-2,3-dihydro-1-benzofuran-4-yl)-1H-pyrazolo[3,4-d]pyrimidin-1-yl]methyl}-5-(cyclopropylethynyl)-3-(1H-pyrrol-1-yl)quinazolin-4(3H)-one], in that order: 80 to 100% and 80 to 100%.
The like results for `Cc1ccccc1C1(n2c(Cn3nc(-c4ccc(O)c5c4CC(C)(C)O5)c4c(N)ncnc43)nc3cccc(-c4ccnn4C)c3c2=O)CC1` [compound 59, 2-{[4-amino-3-(7-hydroxy-2,2-dimethyl-2,3-dihydro-1-benzofuran-4-yl)-1H-pyrazolo[3,4-d]pyrimidin-1-yl]methyl}-3-[1-(2-methylphenyl)cyclopropyl]-5-(1-methyl-1H-pyrazol-5-yl)quinazolin-4(3H)-one] were, in that order, 80 to 100% and 60 to 80%.
The like results for `CC1(C)Cc2c(-c3nn(Cc4nc5cccc(Cl)c5c(=O)n4-n4cccc4)c4ncnc(N)c34)ccc(O)c2O1` [Compound No. 3, 2-{[4-amino-3-(7-hydroxy-2,2-dimethyl-2,3-dihydro-1-benzofuran-4-yl)-1H-pyrazolo[3,4-d]pyrimidin-1-yl]methyl}-5-chloro-3-(1H-pyrrol-1-yl)quinazolin-4(3H)-one] were, in that order, 80 to 100% and 80 to 100%.
With `Cc1cccc2nc(Cn3nc(-c4ccc(O)c5c4CC(C)(C)O5)c4c(N)ncnc43)n(C3(c4cccs4)CC3)c(=O)c12` [compound 60, 2-{[4-amino-3-(7-hydroxy-2,2-dimethyl-2,3-dihydro-1-benzofuran-4-yl)-1H-pyrazolo[3,4-d]pyrimidin-1-yl]methyl}-5-methyl-3-[1-(thiophen-2-yl)cyclopropyl]quinazolin-4(3H)-one], the inhibition at 1 µM in test [1] lay within 80 to 100%; in test [2], 60 to 80%.
Turning to `Cc1ccc(C)n1-n1c(Cn2nc(-c3ccc(O)c4c3CC(C)(C)O4)c3c(N)ncnc32)nc2cccc(-c3cnn(C)c3)c2c1=O` [compound 62, 2-{[4-amino-3-(7-hydroxy-2,2-dimethyl-2,3-dihydro-1-benzofuran-4-yl)-1H-pyrazolo[3,4-d]pyrimidin-1-yl]methyl}-3-(2,5-dimethyl-1H-pyrrol-1-yl)-5-(1-methyl-1H-pyrazol-4-yl)quinazolin-4(3H)-one], the inhibition at 1 µM in test [1] fell in the range of 80 to 100%; in test [2], 60 to 80%.
For `Cc1ccc(C)n1-n1c(Cn2nc(-c3ccc(O)c4c3CC(C)(C)O4)c3c(N)ncnc32)nc2ccccc2c1=O` [compound 88, 2-{[4-amino-3-(7-hydroxy-2,2-dimethyl-2,3-dihydro-1-benzofuran-4-yl)-1H-pyrazolo[3,4-d]pyrimidin-1-yl]methyl}-3-(2,5-dimethyl-1H-pyrrol-1-yl)quinazolin-4(3H)-one], in that order: 80 to 100% and 80 to 100%.
Regarding `C#Cc1cccc2nc(Cn3nc(-c4ccc(O)c5c4CC(C)(C)O5)c4c(N)ncnc43)n(-n3cccc3)c(=O)c12` [compound 20, 2-{[4-amino-3-(7-hydroxy-2,2-dimethyl-2,3-dihydro-1-benzofuran-4-yl)-1H-pyrazolo[3,4-d]pyrimidin-1-yl]methyl}-5-ethynyl-3-(1H-pyrrol-1-yl)quinazolin-4(3H)-one], the inhibition at 1 µM in test [1] and in test [2] was 80 to 100% in each case.
